PubChem BioAssay (NCI)
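1) Cells in 96-well plates. 2) Compound, 48 h, 5 concentrations. 3) Linear interpolation between surrounding doses. 4) Unreached endpoint = highest concentration. GI50: concentration for 50% inhibition of growth. TGI is the concentration that stops growth completely.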

Experiments:
Assay in all cases: growth of human tumour cells (NCI), 48 h
HS 578T breast = tested on: HS 578T breast
HL-60(TB) leukemia = tested on: HL-60(TB) leukemia
SK-OV-3 ovarian = tested on: SK-OV-3 ovarian
786-0 renal = tested on: 786-0 renal
PC-3 prostate = tested on: PC-3 prostate
MDA-MB-435 = tested on: MDA-MB-435
U251 CNS = tested on: U251 CNS
SK-MEL-5 melanoma = tested on: SK-MEL-5 melanoma
CAKI-1 renal = tested on: CAKI-1 renal
NCI-H522 lung = tested on: NCI-H522 lung

| Compound | TGI (HS 578T breast) [µM] | TGI (HL-60(TB) leukemia) [µM] | TGI (SK-OV-3 ovarian) [µM] | TGI (786-0 renal) [µM] | TGI (PC-3 prostate) [µM] | TGI (MDA-MB-435) [µM] | TGI (U251 CNS) [µM] | TGI (SK-MEL-5 melanoma) [µM] | TGI (CAKI-1 renal) [µM] | GI50 (HS 578T breast) [µM] | GI50 (HL-60(TB) leukemia) [µM] | GI50 (SK-OV-3 ovarian) [µM] | GI50 (786-0 renal) [µM] | GI50 (PC-3 prostate) [µM] | GI50 (MDA-MB-435) [µM] | GI50 (U251 CNS) [µM] | GI50 (NCI-H522 lung) [µM] | TGI (NCI-H522 lung) [µM] | GI50 (SK-MEL-5 melanoma) [µM] | GI50 (CAKI-1 renal) [µM] |
| --- | --- | --- | --- | --- | --- | --- | --- | --- | --- | --- | --- | --- | --- | --- | --- | --- | --- | --- | --- | --- |
| CC1CCc2c(c(CC3CC(=O)NC(=O)C3)nn2-c2ccccc2)C1 (stereo unspecified) | > 100 | > 100 | > 100 | > 100 | > 100 | > 100 | > 100 | > 100 | > 100 |  |  |  |  |  |  |  |  |  |  |  |
| COc1cc(/C=C\c2cc(/C=C\c3ccc(O)c(OC)c3)n(C(=O)CNc3ccc(Cl)cc3)n2)ccc1O | > 100 | 6.68 | 13 | 12.8 | 47.9 | 23.4 | 11.8 | 11.3 | 43.6 | 4.36 | 2.07 | 3.65 | 3.03 | 3.38 | 2.52 | 2.94 | 1.51 | 5.06 | 3.24 | 3.36 |
| CC(=O)O[C@H]1C(=O)[C@@]2(C)[C@H]([C@H](OC(=O)c3ccccc3)[C@@]3(O)C[C@H](O)C(C)=C1C3(C)C)[C@]1(OC(C)=O)CO[C@@H]1C[C@@H]2O | 96.3 | > 100 | 69.1 | > 100 | > 100 | 27.5 | > 100 | > 100 | > 100 |  |  |  |  |  |  |  |  | 44.1 |  |  |
| CC(C)(C)c1ccc(O)c(CN(Cc2cc(C(C)(C)C)ccc2O)C2CCCCC2)c1 | 45.3 | 33.3 | 47.8 | 29.8 | 46.8 | 29.8 | 30.4 | 28.4 | > 70.1 |  | 13.9 |  |  |  |  |  |  | 33.7 |  |  |
| CC(C)(C)NC/C(=C\c1ccccc1)C(=O)c1ccccc1 | 60.7 | 14.1 | 13.8 | 4.01 | 13 | 12.8 | 6.41 | 2.91 | 6.36 | 6.11 | 2.59 | 3.83 | 1.95 | 3.44 | 2.51 | 2.3 | 0.371 | 1.77 | 1.53 | 1.88 |
| C=C1NC(=O)C(CC(C(=O)C(=O)Nc2c(C)cccc2C(C)(C)C)C(=O)c2ccc3ccccc3c2)C(=O)N1 (stereo unspecified) | > 100 | > 100 | > 100 | > 100 | > 100 | > 100 | > 100 | > 100 | > 100 |  |  |  |  |  |  |  |  |  |  |  |
| COc1cc(-c2ccc(NC(=O)NC3CC3)c(OC)c2)ccc1NC(=O)NC1CC1 | > 28.6 | > 100 | > 100 | > 100 | > 100 | > 100 | > 69.3 | > 100 | > 60.7 |  | 3.75 | 23.8 | 29.5 | 9.01 | 9.18 | 3.11 | 4.94 | > 62.5 | 4.84 | 6.2 |
| COC(=O)c1ccc2c(c1)c1c(C)c3ccncc3c(C)c1n2C | > 100 | 39.4 | > 100 | 18 | > 100 | 22.9 | > 100 | 0.912 |  | 0.561 | 1.13 | 0.471 | 0.268 | 0.3 | 0.437 | 0.322 | 0.538 | 32 | 0.232 |  |
| CCOC(=O)c1csc(NC(=O)COc2cccc(/C=C3\CSc4ccccc4C3=O)c2)n1 | 7.36 | 2.11 | 25.9 | 1.69 | 1.52 | 5.06 | 1.31 | 17.3 | 18.2 | 1.45 | 0.638 | 13.1 | 0.561 | 0.246 | 2.05 | 0.585 | 0.581 | 1.49 | 5.04 | 1.26 |
| CC(CCCC1SCC2NC(=O)NC21)C(=O)O (stereo unspecified) | > 100 | > 100 | > 100 | > 100 | > 100 | > 100 | > 100 | > 100 | > 100 |  |  |  |  |  |  |  |  | > 100 |  |  |
| CCOc1c(C#N)c2c(N)ncnc2n1C1OC(CO)C(O)C1O (stereo unspecified) | 14 | 6.94 | 53.1 | > 24.9 | > 31.7 | 34.6 | > 100 | 16.6 | 55.9 | 2.12 | 1.94 | 3.34 | 3.76 | 2.77 | 3.15 | 3.21 | 8.18 | 39.9 | 3.79 | 3.13 |
